Results published in patent US9090593B2, “Bicyclic compounds as Pim inhibitors” (AMGEN INC., priority 2010, dated 2015).
Read-outs that look alike come from different tables or passages of the source.

Columns and labels:
[1] = molecular target: T1, full length recombinant Pim-1 protein (Homo sapiens, UniProt P11309); assay: Pim-1 enzyme assay (HTRF, phosphorylation of biotinylated-BAD (S112) peptide); assay type: biochemical; details: read-out: Pim_1_IC50
T1 construct: by full length recombinant Pim-1, Pim-2, or Pim-3 protein; hexahistidine tag followed by a thrombin cleavage site (N); made in house; host or cells: Sf9 (baculovirus) or E. coli (pET28)
T1 sequence (P11309 whole entry): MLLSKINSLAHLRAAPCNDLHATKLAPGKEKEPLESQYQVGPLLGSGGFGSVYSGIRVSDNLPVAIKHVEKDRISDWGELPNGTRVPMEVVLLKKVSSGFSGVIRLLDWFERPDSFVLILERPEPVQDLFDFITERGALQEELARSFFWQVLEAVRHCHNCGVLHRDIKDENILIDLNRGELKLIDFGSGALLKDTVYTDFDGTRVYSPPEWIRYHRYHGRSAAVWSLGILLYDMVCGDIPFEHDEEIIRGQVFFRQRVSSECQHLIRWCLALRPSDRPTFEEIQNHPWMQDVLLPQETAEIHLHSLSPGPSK
Summary of the method: (§1)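 HTRF readout (europium anti-pBAD S112 antibody, streptavidin-APC) of biotin-BAD peptide phosphorylation by recombinant full-length Pim-1 or Pim-2, buffer 60 mM Hepes pH 7.0, 2 mM DTT, 0.05% BSA. Enzymes were His6-tagged, from baculovirus/Sf9 or E. coli.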

[2] = molecular target: T2, full length recombinant Pim-2 protein (Homo sapiens, UniProt Q9P1W9); assay: Pim-2 enzyme assay (HTRF, phosphorylation of biotinylated-BAD (S112) peptide); assay type: biochemical; details: read-out: Pim2_IC50
T2 construct: by full length recombinant Pim-1, Pim-2, or Pim-3 protein; hexahistidine tag followed by a thrombin cleavage site (N); made in house; host or cells: Sf9 (baculovirus) or E. coli (pET28)
T2 sequence (Q9P1W9 whole entry): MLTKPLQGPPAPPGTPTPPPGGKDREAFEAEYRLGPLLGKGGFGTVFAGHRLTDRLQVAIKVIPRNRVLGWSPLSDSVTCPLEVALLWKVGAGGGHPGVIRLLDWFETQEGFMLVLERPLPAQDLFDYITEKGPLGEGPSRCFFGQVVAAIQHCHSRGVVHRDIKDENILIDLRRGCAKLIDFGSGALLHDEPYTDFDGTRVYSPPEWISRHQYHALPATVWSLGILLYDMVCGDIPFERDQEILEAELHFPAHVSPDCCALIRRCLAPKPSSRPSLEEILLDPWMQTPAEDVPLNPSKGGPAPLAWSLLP
Summary of the method: as §1

[3] = molecular target: T3, full length recombinant Pim-3 protein (Homo sapiens, UniProt Q86V86); assay: Pim-3 enzyme assay (HTRF, phosphorylation of biotinylated-BAD (S112) peptide); assay type: biochemical; details: read-out: Pim3 IC50
T3 construct: by full length recombinant Pim-1, Pim-2, or Pim-3 protein; purchased Millipore (UK)
Description: Pim-3 was purchased from Millipore (UK).
The phosphorylation of biotinylated-BAD (S112) peptide by full length recombinant Pim-1, Pim-2, or Pim-3 protein was detected with streptavidin:Allophycocyanin (APC) conjugate and a europium (Eu) labeled antibody directed against phosphorylated-BAD (S112). […] The fluorescence is directly proportional to the amount of phosphorylated BAD peptide present in the reaction.
A reference compound was included on each assay plate in order to validate that plate; on one plate of every assay run, two additional reference compounds were included.
The final buffer conditions were as follows: 60 mM Hepes, pH 7.0, 0.05% BSA, 2 mM DTT. […] The reaction was stopped by the addition of 3 mM EDTA, and fluorescence was measured by an HTRF® Rubystar microplate reader. For each plate, percent of control (POC) values were calculated for each well. Values for the IC50 IP were estimated using a standard 4-parameter logistic model.

[4] = molecular target: T4, Pim-1 stably transfected into the U2OS human osteogenic sarcoma line (Homo sapiens, UniProt P11309); assay: Pim cell assay, phospho-BAD normalized against total BAD, U2OS stably transfected with Pim-1; assay type: cell-based; details: U2OS stably transfected with Pim-1; phospho-BAD normalized against total BAD; 29 min incubation; read-out: Pim1_Cell_IC50_
T4 construct: expressed in transfected cells; host or cells: U2OS human osteogenic sarcoma line
T4 sequence (P11309 whole entry): as the sequence (P11309 whole entry) above
Summary of the method: (§2)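 Read-out is phospho-BAD relative to total BAD, by MSD electrochemiluminescence on lysates, expressed as % phosphoprotein = (2×phospho)/(phospho+total)×100. Engineered U2OS lines carrying stably transfected Pim-1 or Pim-2 received 10-point compound dilutions at 0.3% final DMSO after overnight culture at 37 °C; DMSO-only wells served as high control.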

[5] = molecular target: T5, Pim-2 stably transfected into the U2OS human osteogenic sarcoma line (Homo sapiens, UniProt Q9P1W9); assay: Pim cell assay, phospho-BAD normalized against total BAD, U2OS stably transfected with Pim-2; assay type: cell-based; details: U2OS stably transfected with Pim-2; phospho-BAD normalized against total BAD; 29 min incubation; read-out: Pim2_Cell_IC50_
T5 construct: expressed in transfected cells; host or cells: U2OS human osteogenic sarcoma line
T5 sequence (Q9P1W9 whole entry): as the sequence (Q9P1W9 whole entry) above
Summary of the method: as §2

Row | Compound | IC50 ([1]; enzyme assay, Pim-1) | IC50 ([2]; enzyme assay, Pim-2) | IC50 [3] | IC50 [1] | IC50 [2] | IC50 [4] | IC50 [5]
1 | 3-(6-(4-amino-1-piperidinyl)-2-pyrazinyl)-N-benzyl-1H-indole-5-carboxamide [Example 241] | 376 nM | 2480 nM | 538 nM | – | – | – | –
2 | 3-(6-(4-amino-1-piperidinyl)-2-pyrazinyl)-N-phenyl-1H-indole-5-carboxamide [Example 240] | 254 nM | > 3000 nM | 719 nM | – | – | – | –
3 | Fc1cccc(F)c1-c1ccc2[nH]nc(-c3cncc(O[C@@H]4CNCC[C@H]4F)n3)c2c1 (single isomer, unassigned) [Example 18, 5-(2,6-difluorophenyl)-3-(6-(trans-4-fluoropiperidin-3-yloxy)pyrazin-2-yl)-1H-indazole] | 75 nM | 264 nM | 34 nM | – | – | – | –
4 | COc1cncc(-c2ccc3[nH]nc(-c4cncc(OC)c4)c3c2)c1 [Example 29, 3,5-Bis(5-methoxypyridin-3-yl)-1H-indazole] | 227 nM | 1010 nM | 172 nM | – | – | – | –
5 | NC1CCN(c2cncc(-c3n[nH]c4ccc(-c5c(F)cccc5F)cc34)c2)CC1 [Example 35, 1-(5-(5-(2,6-difluorophenyl)-1H-indazol-3-yl)pyridin-3-yl)piperidin-4-amine] | 124 nM | 2300 nM | 104 nM | – | – | – | –
6 | NC1CCN(c2cncc(-c3n[nH]c4ccc(N5CCCCC5=O)cc34)n2)CC1 [Example 91, 1-(3-(6-(4-amino-1-piperidinyl)-2-pyrazinyl)-1H-indazol-5-yl)-2-piperidinone] | 629 nM | > 3000 nM | 926 nM | – | – | – | –
7 | Nc1cccnc1-c1ccc2[nH]nc(-c3cncc(N4CCC(N)CC4)n3)c2c1 [Example 94, 2-(3-(6-(4-amino-1-piperidinyl)-2-pyrazinyl)-1H-indazol-5-yl)-3-pyridinamine] | 86 nM | > 1000 nM | 118 nM | – | – | – | –
8 | Nc1ncc(-c2ccc3[nH]nc(-c4cncc(N5CCC(N)CC5)n4)c3c2)c(NC2CCCC2)n1 [Example 96, 5-(3-(6-(4-amino-1-piperidinyl)-2-pyrazinyl)-1H-indazol-5-yl)-N~4~-cyclopentyl-2,4-pyrimidinediamine] | 848 nM | > 1000 nM | 1120 nM | – | – | – | –
9 | Cc1c(N)cccc1-c1ccc2[nH]nc(-c3cncc(N4CCC(N)CC4)n3)c2c1 [Example 103, 1-(6-(5-(3-amino-2-methylphenyl)-1H-indazol-3-yl)-2-pyrazinyl)-4-piperidinamine] | 34 nM | 224 nM | 68 nM | – | – | – | –
10 | NC1CCN(c2cncc(-c3n[nH]c4ccc(-c5cccc6c5C5(CCOCC5)CN6)cc34)n2)CC1 [Example 106, 1-(6-(5-(1,2,2′,3′,5′,6′-hexahydrospiro[indole-3,4′-pyran]-4-yl)-1H-indazol-3-yl)-2-pyrazinyl)-4-piperidinamine] | 499 nM | 897 nM | 278 nM | – | – | – | –
11 | Nc1ccc(OC(F)(F)F)c(-c2ccc3[nH]nc(-c4cncc(N5CCC(N)CC5)n4)c3c2)c1 [Example 107, 1-(6-(5-(5-amino-2-(trifluoromethoxy)phenyl)-1H-indazol-3-yl)-2-pyrazinyl)-4-piperidinamine] | 30 nM | 192 nM | 67 nM | – | – | – | –
12 | NC1CCN(c2cncc(-c3n[nH]c4ccc(-c5ccnc6cc(OC(F)(F)F)ccc56)cc34)n2)CC1 [Example 111, 1-(6-(5-(7-(trifluoromethoxy)-4-quinolinyl)-1H-indazol-3-yl)-2-pyrazinyl)-4-piperidinamine] | 29 nM | 292 nM | 87 nM | – | – | – | –
13 | N#Cc1ccc2c(-c3ccc4[nH]nc(-c5cncc(N6CCC(N)CC6)n5)c4c3)ccnc2c1 [Example 112, 4-(3-(6-(4-amino-1-piperidinyl)-2-pyrazinyl)-1H-indazol-5-yl)-7-quinolinecarbonitrile] | 32 nM | 521 nM | 116 nM | – | – | – | –
14 | CC(C)(C)NC(=O)c1ccc(F)c(-c2ccc3[nH]nc(-c4cncc(O[C@@H]5CCCNC5)n4)c3c2)c1 [Example 116, N-tert-butyl-4-fluoro-3-(3-(6-((3R)-3-piperidinyloxy)-2-pyrazinyl)-1H-indazol-5-yl)benzamide] | 27 nM | 26 nM | 22 nM | – | – | – | –
15 | O=c1[nH]cncc1-c1ccc2[nH]nc(-c3cncc(O[C@@H]4CCCNC4)n3)c2c1 [Example 125, 5-(3-(6-((3R)-3-piperidinyloxy)-2-pyrazinyl)-1H-indazol-5-yl)-4(3H)-pyrimidinone] | 21 nM | 80 nM | 16 nM | – | – | – | –
16 | O=c1cc(-c2ccc3[nH]nc(-c4cncc(O[C@@H]5CCCNC5)n4)c3c2)c(Cl)c[nH]1 [Example 128, 5-chloro-4-(3-(6-((3R)-3-piperidinyloxy)-2-pyrazinyl)-1H-indazol-5-yl)-2(1H)-pyridinone] | 31 nM | 59 nM | 30 nM | – | – | – | –
17 | Cn1cc(-c2ccc3[nH]nc(-c4cncc(O[C@@H]5CCCNC5)n4)c3c2)cn1 [Example 129, 5-(1-methyl-1H-pyrazol-4-yl)-3-(6-((3R)-3-piperidinyloxy)-2-pyrazinyl)-1H-indazole] | 3 nM | 30 nM | 3 nM | – | – | – | –
18 | Brc1ccc2[nH]nc(-c3cncc(O[C@@H]4CCCNC4)n3)c2c1 [Example 135, 5-bromo-3-(6-((3R)-3-piperidinyloxy)-2-pyrazinyl)-1H-indazole] | 83 nM | 227 nM | 82 nM | – | – | – | –
19 | c1cc(-c2ccc3[nH]nc(-c4cncc(O[C@@H]5CCCNC5)n4)c3c2)nc(C2CC2)c1 [Example 136, 5-(6-cyclopropyl-2-pyridinyl)-3-(6-((3R)-3-piperidinyloxy)-2-pyrazinyl)-1H-indazole] | 30 nM | 164 nM | 15 nM | – | – | – | –
20 | c1cc(C2CC2)cc(-c2ccc3[nH]nc(-c4cncc(O[C@@H]5CCCNC5)n4)c3c2)n1 [Example 141, 5-(4-cyclopropyl-2-pyridinyl)-3-(6-((3R)-3-piperidinyloxy)-2-pyrazinyl)-1H-indazole] | 42 nM | 435 nM | 32 nM | – | – | – | –
21 | CC(C)Oc1cccc(-c2ccc3[nH]nc(-c4cncc(O[C@@H]5CCCNC5)n4)c3c2)n1 [Example 144, 5-(6-(1-methylethoxy)-2-pyridinyl)-3-(6-((3R)-3-piperidinyloxy)-2-pyrazinyl)-1H-indazole] | 27 nM | 252 nM | 26 nM | – | – | – | –
22 | c1cc2[nH]nc(-c3cncc(O[C@@H]4CCCNC4)n3)c2cc1-c1ccc2nncn2c1 [Example 145, 6-(3-(6-((3R)-3-piperidinyloxy)-2-pyrazinyl)-1H-indazol-5-yl)[1,2,4]triazolo[4,3-a]pyridine] | 23 nM | 496 nM | 80 nM | – | – | – | –
23 | CC(C)Oc1cncc(-c2ccc3[nH]cc(-c4nnc(N[C@@H]5CCCNC5)o4)c3c2)n1 [Example 518] | – | – | – | 25 nM | 97 nM | 6920 nM | > 31600 nM
24 | NC1CCN(c2cncc(-c3c[nH]c4ccc(-c5cncc(NC6CC6)n5)cc34)n2)CC1 [Example 519] | – | – | – | 1 nM | 128 nM | 338 nM | > 31600 nM
25 | CC(C)Nc1nc(-c2n[nH]c3ccc(-c4c(F)cccc4F)cc23)cc(=O)[nH]1 [Example 524] | – | – | – | 5 nM | 18 nM | 1010 nM | > 31600 nM
26 | CC(C)Oc1nc(-c2n[nH]c3ccc(-c4c(F)cccc4F)cc23)cc(=O)[nH]1 [Example 528] | – | – | – | 13 nM | 36 nM | 779 nM | > 15800 nM
27 | COC(=O)c1ccc2[nH]nc(-c3cncc(N4CCC(N)CC4)n3)c2c1 [Example 558, methyl 3-(6-(4-amino-1-piperidinyl)-2-pyrazinyl)-1H-indazole-5-carboxylate] | – | – | – | 2 nM | 8 nM | 156 nM | 3800 nM
28 | NC1CCN(c2nc(O)cc(-c3n[nH]c4ccc(-c5c(F)cccc5F)cc34)n2)CC1 [Example 565] | – | – | – | 1 nM | 2 nM | 1760 nM | 13500 nM
29 | NC1CCN(c2cc(O)nc(-c3c[nH]c4ccc(-c5c(F)cccc5F)cc34)n2)CC1 [Example 566] | – | – | – | 4 nM | 23 nM | 5590 nM | > 31600 nM
